Patent US20040204481A1, “Activation of natural killer cells by adenosine A3 receptor agonists” (priority 2001, published 2004)
“Also recorded” adds a separate entry of the source.

Columns and labels:
[1] = tested on: human peripheral blood NK cells; assay: 4 h 51Cr-release NK cytotoxicity assay, in vitro preincubation with agonist, K562 leukemia cells as targets; assay type: cell-based; details: for activity of natural killer cells following preincubation: 10 nM Cl-IB-MECA, 18 hours preincubation, K562 targets, E:T ratio 1:50, FIG. 1
Experimental: Murine splenocytes were derived from spleens of ICR mice and human mononuclear cells were separated by Ficoll-Hypaque gradient from heparinized blood of healthy normal volunteers.
(§1) The effect of Cl-IB-MECA on the activity of human peripheral blood NK cells was assayed by a standard 4 h ^51Cr-release assay using K562 leukemia cells as targets. Splenocytes or human mononuclear cells were cultured at a concentration of 5×10^5 cells/well in 96 well round bottom plates, and used as the effector (E) cells. The cells were preincubated with 10 nM Cl-IB-MECA for 18 hours, then the agonist was washed out from the wells and the cells were re-suspended in RPMI containing 5% FCS. K562 cells were used as the targets (T) and were labeled with 100 μci of Na2[^51Cr]O4 at 37° C., for 1 hr.
(§2) After extensive washing to remove the excess ^51Cr, target cells (1×10^4) were re-suspended in RPMI and mixed with the effector cells at an E:T ratio of 1:50 in a total volume of 200 μl (triplicate assays). After 4 hours of incubation at 37° C. in 5% CO2, plates were centrifuged, and the supernatants were counted in a gamma counter (LKB).
(§3) NK cytotoxicity was calculated using the following equation (CPM: counts per minute): [formula]
(§4) CPM sample, CPM spontaneous and CPM maximal were determined by measuring the CPM of the supernatants of the target cells in the presence of […], the assay medium or in the presence of 1% triton, respectively. It should be noted that spontaneous release was below 10% of the maximal release throughout this experiment.

[2] = tested on: murine NK cells; assay: NK activity (51Cr assay) of splenocytes from ICR mice after oral administration; assay type: in vivo; details: FIG. 2; for NK activity of splenocytes derived from treated mice: 6 μg/kg orally for two consecutive days
Experimental: as §1, §2, §3, §4
ICR mice were orally administered for two consecutive days with 6 μg/kg body weight of Cl-IB-MECA. After 4, 11 and 18 days, mice were sacrificed and spleens were removed. Splenocytes were separated and tested for NK activity using the ^51Cr assay as described above.

[3] = tested on: B-16 melanoma cells; assay: Adoptive transfer of splenocytes to melanoma bearing mice, count of lung melanoma foci; assay type: in vivo; details: splenocytes from 6 μg/kg Cl-IB-MECA treated mice engrafted 4 days after B-16 inoculation; day 15; versus non-activated splenocytes or control; FIG. 4
Source text: In another experiment, the capability of the “activated” splenocytes to act in vivo against melanoma cells was examined. The “non-activated” and “activated” splenocytes were engrafted to mice that were inoculated 4 days earlier with B-16 melanoma cells (2.5×10^5). As the control served mice that were inoculated with the B-16 melanoma cells however not engrafted with splenocytes. The mice were sacrificed on day 15 and their lungs were removed. The number of lung melanoma foci was counted, the results for which are depicted in FIG. 4.

[4] = tested on: NK cells; assay: NK activity (51Cr assay) of splenocytes from B-16 melanoma bearing mice treated orally; assay type: in vivo, C57B1/6J mice; details: for NK activity of splenocytes versus vehicle control group: 15 days, B-16 melanoma inoculated mice, FIG. 3
Experimental: In a further study C57B1/6J mice were used as the model mice which will develop metastatic lung foci after 15 days. The C57B1/6J mice were inoculated intravenously with B-16 melanoma cells (2.5×10^5) and treated daily orally with 6 or 9 μg/kg body weight of Cl-IB-MECA (starting one day after tumor inoculation). After 15 days, the mice were sacrificed and spleens were removed.
Splenocytes were separated and tested for NK activity using the ^51Cr assay as described above. […] The splenocytes derived from the group treated with 6 μg/kg body weight of Cl-IB-MECA were designated as “activated” cells and those derived from the control group were designated as “non-activated” splenocytes.

Compound | effect of the A3 receptor antagonist on the stimulatory effect of Cl-IB-MECA on NK activity ([1]; MRS-1220 introduced with Cl-IB-MECA, FIG. 1) | activity of natural killer cells following preincubation [1] | activity of natural killer cells following preincubation ([1]; listed as CI-IB-MECA) | NK activity of splenocytes derived from treated mice ([2]; after 4 days) | NK activity of splenocytes derived from treated mice ([2]; after 11 days) | NK activity of splenocytes derived from treated mice ([2]; following 18 days) | time of maximal activation of murine NK cells ([2]; oral administration) [days] | development of lung metastatic foci [3] | NK activity of splenocytes versus vehicle control group ([4]; 6 μg/kg daily orally) | NK activity of splenocytes versus vehicle control group ([4]; 9 μg/kg daily orally) | NK cell activity in splenocytes derived from treated melanoma bearing mice ([4]; FIG. 3 legend, dose not stated there)
O=C(Cc1ccccc1)Nc1nc2ccc(Cl)cc2c2nc(-c3ccco3)nn12 [MRS-1220, 9-chloro-2-(2-furanyl)-5-[(phenylacetyl)amino] [1,2,4,] -triazolo[1,5-c] quinazoline] | reversed the stimulatory effect; also recorded: abolished the stimulatory effect | – | – | – | – | – | – | – | – | – | –
CNC(=O)[C@H]1O[C@@H](n2cnc3c(NCc4cccc(I)c4)nc(Cl)nc32)[C@H](O)[C@@H]1O [Cl-IB-MECA, 2-chloro-N^6-(3-iodobenzyl)-adenosine-5′-N-methyl-uronamide] | – | potentiation | significant dose dependent increase | marked increase | high activity was still observed | only slight increase | 4 | decreased number of lung foci | marked increase | marked increase | increased NK cell activity
